The results in this text go back to BindingDB's records for doi:10.1016/s0960-894x(01)00687-4 (Merck Research Laboratories, 2001).

By IC50 is commonly meant the point on the concentration scale where inhibition reaches its midpoint. Low readings indicate greater potency, high ones weaker potency.

Some results are limits rather than exact numbers.

The nature of this assay: Inhibition of rate of ADP-stimulated gel-filtered human platelet aggregation mediated by integrin alphaIIb beta-3 in PLAGGIN assay.
`O=C(O)C[C@H](NC(=O)CN1CCCC(CCc2ccc3c(n2)NCCC3)C1=O)c1cccnc1` (stereo partly drawn) [3-(2-{2-Oxo-3-[2-(5,6,7,8-tetrahydro-[1,8]naphthyridin-2-yl)-ethyl]-piperidin-1-yl}-acetylamino)-3-(S)-pyridin-3-yl-propionic acid]: the IC50 is over 10 µM. Consider `O=C(O)C[C@H](NC(=O)CN1CC[C@H](CCc2ccc3c(n2)NCCC3)C1=O)c1cccnc1` [3-(2-{(S)-2-Oxo-3-[2-(5,6,7,8-tetrahydro-[1,8]naphthyridin-2-yl)-ethyl]-pyrrolidin-1-yl}-acetylamino)-3-(S)-pyridin-3-yl-propionic acid], for which the IC50 is over 10 µM. `O=C(O)CCNC(=O)CNC(=O)CCCc1ccc2c(n1)NCCC2` [3-[2-(4-5,6,7,8-Tetrahydro-[1,8]naphthyridin-2-yl-butyrylamino)-acetylamino]-propionic acid] returned an IC50 of over 10 µM. In the case of `O=C(O)C[C@H](NC(=O)CN1CCN(CCc2ccc3c(n2)NCCC3)C1=O)c1cccnc1` [(S)-3-(2-{2-Oxo-3-[2-(5,6,7,8-tetrahydro-[1,8]naphthyridin-2-yl)-ethyl]-imidazolidin-1-yl}-acetylamino)-3-pyridin-3-yl-propionic acid] it was 7.1 µM; in that of `O=C(O)C[C@H](NC(=O)CN1CC[C@@H](CCc2ccc3c(n2)NCCC3)C1=O)c1cccnc1` [(S)-3-(2-{(R)-2-Oxo-3-[2-(5,6,7,8-tetrahydro-[1,8]naphthyridin-2-yl)-ethyl]-pyrrolidin-1-yl}-acetylamino)-3-pyridin-3-yl-propionic acid], over 10 µM. `C#C[C@H](CC(=O)O)NC(=O)CN1CC[C@H](CCc2ccc3c(n2)NCCC3)C1=O` [(S)-3-(2-{(S)-2-Oxo-3-[2-(5,6,7,8-tetrahydro-[1,8]naphthyridin-2-yl)-ethyl]-pyrrolidin-1-yl}-acetylamino)-pent-4-ynoic acid] showed an IC50 of over 10 µM.

In turn, `O=C(O)C[C@H](NC(=O)CNC(=O)CCCc1ccc2c(n1)NCCC2)c1cccnc1` [(S)-3-Pyridin-3-yl-3-[2-(4-5,6,7,8-tetrahydro-[1,8]naphthyridin-2-yl-butyrylamino)-acetylamino]-propionic acid] displayed an IC50 of over 10 µM. In the case of `C#C[C@H](CC(=O)O)NC(=O)CNC(=O)CCCc1ccc2c(n1)NCCC2` [(S)-3-[2-(4-5,6,7,8-Tetrahydro-[1,8]naphthyridin-2-yl-butyrylamino)-acetylamino]-pent-4-ynoic acid], the IC50 is over 10 µM.
